{"source": "patent US20230212517A1", "about": "“METHODS FOR GENERATING HEMATOPOIETIC STEM CELLS” (The Brigham and Women's Hospital, Inc., priority 2018, published 2023)", "key": {"E11.5 AGM cells": {"test_system": "E11.5 AGM cells", "assay": "Hematopoietic colony formation unit (CFU) and FACS assays on E11.5 AGM cells", "type": "cell-based, mouse", "details": "for effect on cyclic strain-induced endothelial-to-HSC transition / hematopoietic progenitor formation: in the presence of cyclic strain (stretch)", "protocol": "Pulsating blood vessels like conditions were stimulated in vitro using FLEXCELL FX-4000 cell stretching bioreactor machine. To analyze roles of pharmacological targets in regulating the endothelial-to-HSC transition, mouse embryo-derived AGM or whole mouse embryo were exposed ex vivo with biomechanical stretching, chemicals, or drugs. Next, hematopoietic colony formation assays were performed by incubating mouse AGM-derived cells in StemCell M3434 media for seven days. Serial transplantation of AGM-derived HSCs in lethally irradiated SJL mice were performed. The stem cell frequency upon biomechanical stretching was analyzed using a limiting dilution assay. To characterize properties of AGM-HSC-derived blood cells in primary transplants, percentage chimerism and reconstitution was measured using FACS, globin transcripts were analyzed using quantitative reverse transcriptase-PCR, myeloperoxidase amount was measured using PICOKINE ELISA kit, TCR-β rearrangement was analyzed using PCR for TCR-β locus, pre-immune IG detection was analyzed using Thermo-Fisher Mouse Ig Isotyping kit, and delayed-type hypersensitivity was analyzed by injecting sheep RBC (Rockland Immunochemicals) in the footpad of pre-sensitized mice.\nE11.5 AGM were harvested from C57BL6/J Cd45.2 mouse embryos, and a single cell suspension of a three-embryo equivalent of cells was seeded on each well of a BioFlex six-well culture plate (FlexCell). We cultured cells overnight with the application of cyclic strain (Flexcell® FX4000™ Tension System) and/or treatment with chemical modulators (25-50 μM Yoda1, 1 μM Nanaomycin, 100 μM GdCl3, 1 uM GsMTx4, 5-20 μM 4αPDD, 10 uM GSK205). Next, harvested cells were used to perform transplant, fluorescence-activated cell sorting (FACS) analysis, and colony-forming unit (CFU) assays.\nE11.5 mouse embryos were harvested from the uterus of the time-mated pregnant female, into sterile glass vials containing FBS, 1 mM glucose, 1% Penicillin-Streptomycin, and/or the selected chemical modulator (25-50 μM Yoda1, 1 μM Nanaomycin, 5-20 μM 4αPDD, or 10 uM GSK205). We placed glass vials in the ex vivo incubator (BTC Engineering, Cambridge, UK) consisting of a roller apparatus (rotating ˜30 rpm), constant gas supply (21% O2, 5% CO2, balance N2) and constant temperature at 37° C. After 24 hours, AGM were harvested to analyze the formation of hematopoietic cells by FACS and CFU assays.\nFor CFU assays, cells from AGM explant or ex vivo were plated in METHOCULT GF M3434 media (StemCell Technologies). Seven days after seeding, we analyzed their capacity to make granulocyte, erythroid, macrophage, megakaryocyte (GEMM), granulocyte macrophage (GM), granulocyte (G), macrophage (M), and erythroid (E) colonies.\nAGM cells from explants and ex vivo were stained with Sca1-Pacific-Blue (E13-161.7, Biolegend) and Flk1-APC-Cy7 (Avas 12α1, BD). Blood from transplanted mice was stained with the following antibody cocktail: Cd45.2-Pacific-Blue (104, Biolegend), Cd45.1-FITC (A20, Biolegend), Cd3-PE (145-2C11, Biolegend), Cd8-PE (53-6.7, Biolegend), Mac1-APC (M1/70, Biolegend), Gr1-APC (108412, Biolegend), Cd19-APC-CY7 (6D5, Biolegend), B220-APC-CY7 (RA3-6B2, Biolegend)."}, "zebrafish embryos": {"test_system": "zebrafish embryos", "assay": "HSPC marker expression in chemically treated embryos (whole mount in situ hybridization)", "type": "in vivo", "protocol": "(§1) Zebrafish embryos were treated with the following chemical modulators in E3 fish media: 100 uM L-NAME (Fisher Scientific), 50 uM Digitoxigenin (Sigma), 25-50 uM Yoda1 (Cayman Chemical), 1 uM Nanaomycin (Nana; Fisher Scientific), 100 uM Gadolinium chloride (GdCl3; Sigma), 5-10 uM 4α-phorbol 12, 13-didecanaote (4Apdd; Sigma), or GSK205 (10 uM).\nWhole mount in situ hybridizations was performed as previously described."}, "[1]": {"test_system": "cd41:eGFP+ HSCs emerging from flk1:mCherry+ endothelial cells", "assay": "Time-lapse confocal imaging of cd41:eGFP+ HSCs emerging from flk1:mCherry+ endothelial cells in transgenic embryos", "type": "in vivo, zebrafish", "protocol": "Mice were purchased Cd45.2 (C57BL6/J) and Cd45.1 (SJL) from The Jackson Laboratory and zebrafish morpholinos from GeneTools. Microangiography was performed by injecting fluorescent-labeled dextran dye in the atrium of zebrafish heart and its passage was recorded using live imaging. Immunostaining of zebrafish heart and mouse AGM were analyzed using an inverted fluorescent microscope. Cardiac tamponade, heart rate, and pulse frequency were analyzed in zebrafish embryos using bright field imaging or time-lapse confocal microscopy. The movement of red blood cells in blood vessels was analyzed as well as the endothelial-to-HSC transition in zebrafish transgenic embryos using time-lapse confocal imaging.\nas §1\ncd41: eGFP were crossed with flk1:mCherry zebrafish and flk1:mCherry with lcr:eGFP zebrafish and injected morpholino in their transgenic embryos. Transgenic embryos were mounted in low-melting-point agarose and a spinning-disk confocal microscope was used to perform time-lapse confocal imaging of cd41:eGFP^+ HSCs emerging from flk1^+ endothelium from 30 to 42 hpf. The relative movement of lcr:eGFP^+ red blood cells was analyzed in the context of flk1:mCherry^+ endothelium. We performed image analysis using IMARIS (Bitplane) software."}}, "note": "Entries after “also recorded” stand apart in the source; their conditions may differ.", "data": [{"compound": "[Cl][Gd]([Cl])[Cl]", "note": "[GdCl3, Gadolinium chloride]", "values": [{"measurement": "effect on cyclic strain-induced endothelial-to-HSC transition / hematopoietic progenitor formation", "setting": "E11.5 AGM cells", "value": "attenuated"}, {"measurement": "HSPC marker expression / HSPC formation", "setting": "zebrafish embryos; control embryos", "value": "attenuated HSPC expression in zebrafish embryos to the level of sih-MO embryos"}]}, {"compound": "COC(=O)[C@@H](N)CCCNC(=N)N[N+](=O)[O-]", "note": "[L-NAME]", "values": [{"measurement": "HSPC marker expression / HSPC formation", "setting": "zebrafish embryos; cdh5-MO embryos", "value": "produce HSCs; also recorded: does not impact HSPC formation"}, {"measurement": "HSPC marker expression / HSPC formation", "setting": "zebrafish embryos; control embryos", "value": "attenuates HSPC formation"}]}, {"compound": "CC1OC(CC(=O)O)CC2=C1C(=O)c1c(O)cccc1C2=O", "note": "(stereo not drawn) [Nanaomycin]", "values": [{"measurement": "effect on Piezo1 activation (Yoda1)-mediated increase in HSC formation", "setting": "[1]; embryos concurrently treated with or without Yoda1, also whole mount in situ hybridization", "value": "attenuated the Piezo1 activation-mediated increase in HSC formation"}, {"measurement": "specificity for Dnmt3b over Dnmt3a", "setting": "[1]; transgenic embryos 26-42 hpf", "value": "specificity of Nanaomycin for Dnmt3b over Dnmt3a"}, {"measurement": "phenotype of hematopoietic cells after treatment", "setting": "E11.5 AGM cells; E11.5 AGM cells", "value": "reverts hematopoietic cells into phenotypic endothelial cells"}, {"measurement": "effect on Piezo1 activation (Yoda1)-induced endothelial-to-HSC transition", "setting": "E11.5 AGM cells; in the presence of Yoda1", "value": "attenuates the endothelial-to-HSC transition"}, {"measurement": "effect on cyclic strain-induced endothelial-to-HSC transition / hematopoietic progenitor formation", "setting": "E11.5 AGM cells", "value": "attenuates the endothelial-to-HSC transition"}, {"measurement": "HSPC marker expression / HSPC formation", "setting": "zebrafish embryos; cdh5-MO embryos", "value": "attenuated HSPC marker expression"}, {"measurement": "HSPC marker expression / HSPC formation", "setting": "zebrafish embryos; control embryos", "value": "attenuated HSPC marker expression"}]}, {"compound": "GsMtX4", "values": [{"measurement": "effect on cyclic strain-induced endothelial-to-HSC transition / hematopoietic progenitor formation", "setting": "E11.5 AGM cells", "value": "attenuates the inductive impact of cyclic strain on the endothelial-to-HSC transition"}]}]}
